According to patent publication US7582681B2, “Synergistic mixtures of 1,2-alkane diols” (Symrise GmbH & Co. KG, priority 2002, dated 2009):
≈ marks a conversion by molar mass, not a printed value.

What was measured:
Assay in all cases: MIC, agar dilution method
Format in all cases: cell-based
[1] = test system: Epidermophyton floccosum CBS 55384; conditions: CBS55384, Mueller-Hinton agar, 18 h at 36° C.
Method: (§1) Petri dishes 9.0 cm in diameter were charged with 13.5 ml freshly prepared Mueller-Hinton agar (Merck, Ref. 1.05437 or Wilkins-Chalgren agar boullion, Oxoid, Ref. CM 643, supplemented with log agar-agar/liter) kept liquid at 50° C., to which the various concentrations of the diluted samples were added in 10% (V/V)=1.5 ml. Mueller-Hinton agar that contained 3% Tween80 (Merck, Ref. 8.22 187) was used for the test germ Malassezia furfur. In each case 5 ml of the samples were diluted in distilled water and made up to 10 ml. The further test concentrations of the particular dilution series, which were prepared in the form of geometric series, were prepared by progressive 1:2 dilution of this batch with distilled water. […] Two agar plates were poured per test concentration and nutrient medium. After solidification and drying (approx. 1 h at 37° C.), the test plates were inoculated in point form with, in each case, 1 μl of the test germ suspensions listed below. To check purity and identity the bacteria that grow aerobically (Brevibacterium epidermidis, Corynebacterium xerosis, Staphylococcus epidermidis) were [lacuna] on Columbia blood agar (BioMérieux, Ref. 43049). The mould Aspergillus niger, the yeast Candida albicans and the two skin fungi Trichophyton mentagrophytes and Epidermophyton floccosum were cultured on Sabouraud agar (BioMérieux, Ref. 43555). Malassezia furfur was cultured on Sabourad HLT agar with disinhibitors (addition of 3% Tween80: 1%; lecithin: 0.3%; histidine: 0.1%; Merck, Ref. 1.18368). Propionibacterium acnes was cultured on Schaedler agar (BioMérieux, Ref. 43273). Further details on the test germs can be taken from Table 5. For preparation of the other test germ suspensions, the test strains were cultured on the abovementioned solid nutrient medium, harvested using sterile swabs and taken up or diluted in such an amount of Mueller-Hinton broth that the turbidity of the suspensions corresponded to McFarland standard 0.5. All test germ suspensions with the exception of Propionibacterium acnes were diluted again 1:10 with sterile broth and the germ count thereof was determined by the surface method using a Spiralometer (results: see Table 5). The MIC (minimum inhibitory concentration) was regarded as the lowest concentration of active compound at which macroscopically there is no growth. Minimal, barely visible growth or few small individual colonies were evaluated as inhibition.

[2] = test system: Malassezia furfur DSM 6171; conditions: DSM6171, Mueller-Hinton agar + 3% Tween 80, 72 h at 30° C.
Method: as §1

[3] = test system: Trichophyton mentagrophytes CBS 26379; conditions: CBS26379, Mueller-Hinton agar, 72 h at 30° C.
Method: as §1

SMILES | MIC [1] | MIC [2] | MIC [3]
CCCCC(O)CO (stereo not drawn) [HE3, 1,2-hexanediol] | 6250 µg/mL (≈ 52.9 mM) | 12500 µg/mL | 6300 µg/mL (≈ 53.3 mM)
CCCCCCC(O)CO (stereo not drawn) [OC3, 1,2-octanediol] | 3120 µg/mL (≈ 21.4 mM) | 50000 µg/mL | 1560 µg/mL (≈ 10.7 mM)
